Assay results taken from EP4591860A1, “OPHTHALMIC PHARMACEUTICAL COMPOSITION FOR THE PREVENTION AND TREATMENT OF DRY EYE SYNDROME” (FB Vision S.p.A., priority 2024, dated 2025).
Entries after “also recorded” stand apart in the source; their conditions may differ.

How the values were obtained:
Type in all cases: cell-based, human
HCEC cells = assay: MTT cell viability assay
Description: The primary culture of HCEC (cat. PCS-700-010) was purchased from the American Type Culture Collection (ATCC), Manassas, VA, USA.
The cells were resuspended in basal medium for corneal epithelial cells (devoid of serum and calcium) and supplemented with a growth kit provided by ATCC.
The cells were seeded at a density of 8 × 10^3 cells/well in a 96-well plate and cultured overnight. The cells were then treated with PGB or HA at different concentrations for 24 hours or with empty medium (control). After gently washing them with PBS, the cells were incubated with 0.5 mg/ml MTT solution in the dark for 4 hours. After removing the supernatant, DMSO was added to solubilize the formazan. Absorbance at 570 nm was measured with an ELISA reader (Multiskan MK3) for cell viability.

NF-kβ p65 = NF-kβ p65 DNA binding activity test (TransAM ELISA) in LPS-stimulated HCEC; settings: 500 ng/ml LPS, 12 hours; PGB 100 µg/ml, HA 100 µg/ml or combination
Description: To evaluate the ability of the synergistic composition of the invention to inhibit NF-kβ activity in corneal cells, the NF-kβ p65 DNA Binging activity test was used with the ELISA kit of the TransAM p65 transcription factor (Active Motif, Carlsbad, CA).
HCEC cells were stimulated with 500 ng/ml LPS in the presence and absence of PGB 100 µg/ml, HA 100 µg/ml or a combination of PGB+HA for 12 hours, as described here.
Subsequently, the DNA binding activity of NF-kβ p65 was determined. 12 hours after stimulation with LPS markedly promoted the DNA-binding activity of NF-kβ p65 and the expression of the pro-inflammatory cytokines IL-1β, IL-6 and TNF-α.

IL-1β = assay: LPS-stimulated cytokine secretion in HCEC (ELISA); settings: 500 ng/mL LPS 24-hour; preincubation 1h; 100 µg/ml each, combination in 1/1 ratio
Description: (§1) IL-1b, IL-6 and TNF-a were detected with ELISA kits purchased from Abcam, Cambridge (MA) USA. Data are expressed as mean ± SEM, n=4; *p<0.001 with respect to LPS, **p<0.001 with respect to PGB or HA alone.
(§2) 24-hour exposure of HCECs to 500 ng/mL LPS induced maximal secretion of IL-1β, IL-6, and TNF-α, all of which are released in small amounts under basal conditions, as shown in Figure 22.

IL-6 = assay: LPS-stimulated cytokine secretion in HCEC (ELISA); settings: 500 ng/mL LPS 24-hour; preincubation 1h; 100 µg/ml each, combination in 1/1 ratio
Description: as §1, §2

TNF-α = assay: LPS-stimulated cytokine secretion in HCEC (ELISA); settings: 500 ng/mL LPS 24-hour; preincubation 1h; 100 µg/ml each, combination in 1/1 ratio
Description: as §1, §2

CC(C)C[C@H](CN)CC(=O)O [PGB, (S)-3-(aminomethyl)-5-methylhexanoic acid] was tested, and the “cell viability (MTT)” value (HCEC cells; 24 hours, 1000 µg/ml) was “a certain reduction in cell viability”, the “cell viability (MTT), toxicity” value (HCEC cells; 24 hours, 10, 50, 100, 200 µg/ml) was “no evidence of toxicity; also recorded: did not show toxicity” and the “DNA-binding activity of NF-kβ p65” value (NF-kβ p65) was “lower DNA-binding activity”. For the same compound, the “LPS-stimulated secretion of IL-1β” value (IL-1β) was “significantly reduced”, the “LPS-stimulated secretion of IL-6” value (IL-6) was “significantly reduced” and the “LPS-stimulated secretion of TNF-α” value (TNF-α) was “significantly reduced”.
